Experimental data from patent US20250122148A1, “HIGH-SELECTIVITY KCNQ4 POTASSIUM CHANNEL AGONIST, PREPARATION METHOD THEREFOR AND USE THEREOF” (SHANGHAI INSTITUTE OF MATERIA MEDICA, CHINESE ACADEMY OF …, priority 2022, published 2025).

Legend:
human KCNQ4 = target: T1, human KCNQ4 (Homo sapiens, UniProt P56696); assay: Whole-cell voltage clamp of KCNQ4 channel current in transfected CHO-K1 cells; assay type: cell-based; design: key to KCNQ4 (IDrug/IControl 100 nM): IDrug/IControl current amplitude ratio at -10 mV; settings: for KCNQ4 (IDrug/IControl 100 nM): activation efficacy, 100 nM compound, -10 mV test pulse, CHO-K1 cells, mean ± SEM
T1 construct: host or cells: CHO-K1 (Chinese hamster ovary), transient transfection with Lipofectamine 2000, co-transfected with GFP
Procedure: (§1) The cell line used in the electrophysiological experiments was the Chinese hamster ovary cell line (CHO-K1); KCNQ cDNA was transformed into E. coli, expressed in E. coli, and then confirmed by plasmid extraction and sequencing.
(§2) CHO-K1 cells (Cell Bank of Chinese Academy of Sciences), medium formula: 50/50 DMEM/F-12 (Gibco), supplemented with 10% fetal bovine serum (FBS) (Gibco, Australia) and 2 mM L-glutamine (Invitrogen). Transfection and expression of KCNQ channels: 24 hours before transfection, cells were digested with trypsin (Sigma, China) and spread in a 6-well plate. Lipofectamine2000™ reagent (Invitrogen) was used for transfection, and the experiment was carried out according to the procedures provided. Twenty-four hours after transfection, cells were digested and seeded onto poly-L-lysine (Sigma)-soaked slides. After co-transfected with GFP (green fluorescent protein), the transfected cells were determined under a fluorescence microscope (Olympus). The human KCNQ2 plasmid (NCBI: NM_172107.4) and human KCNQ4 plasmid (NCBI: NM_004700.4) used were synthesized by Beijing Genomics Institute and constructed in the pcDNA3.1(+) vector plasmid. KCNQ2 and KCNQ4 plasmids were confirmed by plasmid extraction and sequencing after transformation into E. coli DH5α.
(§3) Whole-cell voltage clamp experiments were carried out at room temperature (23˜25° C.), where Axopatch-700B amplifier (Molecular Devices, Sunnyvale, CA) and Digidata 1440A (Molecular Devices) as digital-to-analog converter were used, pClamp 10.0 software (Molecular Devices, Sunnyvale, CA) was used for signal acquisition, the signal was filtered at 2 kHz, the sampling frequency was 10 kHz. Series resistance compensation was used and set to 60%. Pipettes were pulled from Borosilicate glass capillaries (World Precision Instruments, Sarasota, FL), and the resistance of the pipettes filled with an intracellular fluid was 3-5 MΩ. The perfusion drug delivery system was BPS-8 (ALA Scientific Instruments, Westburg, NY) with a speed of approximately 1 mL/min.
(§4) Intracellular fluid formulation for electrophysiological experiments: 145 mM KCl, 1 mM MgCl2, 5 mM EGTA, 10 mM HEPES, 5 mM MgATP (adjusted to pH=7.3 with KOH).
(§5) Extracellular fluid formulation for electrophysiological experiments: 140 mM NaCl, 5 mM KCl, 2 mM CaCl2), 1.5 mM MgCl2, 10 mM HEPES, 10 mM glucose (adjusted to pH=7.4 with NaOH).
(§6) To record the whole-cell currents of KCNQ2 and KCNQ4 channels, the cells were clamped at a holding potential of −120 mV, and then depolarized to −10 mV for a duration of 1500 ms, and the stimulation frequency was 0.1 Hz. The current amplitudes at the −10 mV test pulse before (IControl) and after (IDrug) the perfusion of the compounds were collected to determine the activation efficacy (IDrug/IControl).
(§7) A certain mass of the compound was weighed and dissolved in DMSO to prepare a 20 mM DMSO stock solution which was frozen and stored at −20° C. until use. […] This kind of concentration of DMSO has no effect on the detected KCNQ channel current. For example, to prepare 100 nM and 1 μM compound solutions, the gradient dilution method was as follows: 5 μL DMSO stock solution was first pipetted and added to 10 mL of extracellular fluid, and was dissolved evenly to obtain a 10 μM compound solution; then 1 mL of 10 μM compound solution was pipetted and added to 9 mL of extracellular fluid, dissolved evenly to obtain a 1 μM compound solution; then 1 mL of 1 μM compound was pipetted and added to 9 mL of extracellular fluid, dissolved evenly to obtain a 100 nM compound solution.
(§8) Data collection, analysis and processing were performed using pClamp10 (Molecular Devices, Sunnyvale, CA), GraphPad Prism 5 (GraphPad Software, San Diego, CA) and Excel (Microsoft Corporation) software. All data are expressed as mean±standard error. (Mean±SEM), significance analysis was performed using unpaired student's t-test. When P<0.05, the difference between the two groups was considered statistically significant. […]

human KCNQ2 = target: T2, human KCNQ2 (Homo sapiens, UniProt O43526); assay: Whole-cell voltage clamp of KCNQ2 channel current in transfected CHO-K1 cells; assay type: cell-based; design: key to KCNQ2 (IDrug/IControl 100 nM): IDrug/IControl current amplitude ratio at -10 mV; settings: for KCNQ2 (IDrug/IControl 100 nM): activation efficacy, 100 nM compound, -10 mV test pulse, CHO-K1 cells, mean ± SEM
T2 construct: host or cells: CHO-K1 (Chinese hamster ovary), transient transfection with Lipofectamine 2000, co-transfected with GFP
Procedure: as §1, §2, §3, §4, §5, §6, §7, §8

[1] = in vitro electrophysiological experiments

Row | Compound | KCNQ4 (IDrug/IControl 100 nM) (human KCNQ4) | KCNQ2 (IDrug/IControl 100 nM) (human KCNQ2) | KCNQ4 agonistic activity (in words) (human KCNQ4; [1]) | KCNQ2 agonistic activity (in words) (human KCNQ2; [1])
1 | C#CCN(Cc1ccc(Cl)cc1)c1ccc(NC(=O)OC(C)(C)C)cc1 [Compound K35] | 3.30 ± 0.62 | 0.98 ± 0.03 | – | –
2 | C#CCN(Cc1ccc(F)c(C#N)c1)c1ccc(NC(=O)OC(C)(C)C)cc1 [Compound K40] | 1.26 ± 0.16 | 0.97 ± 0.02 | – | –
3 | C#CCN(Cc1ccc(F)cc1)c1ccc(NC(=O)OC(C)(C)C)cc1 [Compound K31] | 3.06 ± 0.61 | 1.07 ± 0.04 | still had good KCNQ4 agonistic activity | lost KCNQ2 agonistic activity
4 | C#CCN(Cc1ccccc1F)c1ccc(NC(=O)OC(C)(C)C)cc1 [Compound K32] | 2.50 ± 0.28 | 1.05 ± 0.02 | – | –
5 | C#CCN(Cc1ccc([N+](=O)[O-])cc1)c1ccc(NC(=O)OC(C)(C)C)cc1 [Compound K38] | 1.66 ± 0.19 | 0.96 ± 0.01 | – | –
6 | C#CCN(Cc1ccc(Br)cc1)c1ccc(NC(=O)OC(C)(C)C)cc1 [Compound K36] | 3.50 ± 0.28 | 1.05 ± 0.03 | – | –
7 | C#CCN(Cc1ccc(I)cc1)c1ccc(NC(=O)OC(C)(C)C)cc1 [Compound K37] | 3.28 ± 0.21 | 1.02 ± 0.04 | – | –

More lines, now with the values ahead:

Row | KCNQ4 (IDrug/IControl 100 nM) (human KCNQ4) | KCNQ2 (IDrug/IControl 100 nM) (human KCNQ2) | KCNQ4 agonistic activity (in words) (human KCNQ4; [1]) | KCNQ2 agonistic activity (in words) (human KCNQ2; [1]) | Compound
8 | 1.46 ± 0.02 | 1.10 ± 0.02 | – | – | C#CCN(Cc1ccc(F)c(F)c1)c1ccc(NC(=O)OC(C)(C)C)cc1 [Compound K39]
9 | 2.72 ± 0.38 | 0.98 ± 0.00 | – | – | C#CCN(Cc1ccc(Br)c(F)c1)c1ccc(NC(=O)OC(C)(C)C)cc1 [Compound K43]
10 | 4.40 ± 0.62 | 1.07 ± 0.04 | – | – | C#CCN(Cc1ccc(C(C)(C)C)cc1)c1ccc(NC(=O)OC(C)(C)C)cc1 [Compound K34]
11 | 3.00 ± 0.18 | 1.06 ± 0.03 | – | – | C#CCN(Cc1cccc(F)c1)c1ccc(NC(=O)OC(C)(C)C)cc1 [Compound K33]
12 | 1.69 ± 0.19 | 1.03 ± 0.02 | – | – | C#CCN(Cc1ccc(F)c(C(F)(F)F)c1)c1ccc(NC(=O)OC(C)(C)C)cc1 [Compound K41]
13 | 1.35 ± 0.08 | 1.02 ± 0.02 | – | – | C#CCN(Cc1ccc(F)c([N+](=O)[O-])c1)c1ccc(NC(=O)OC(C)(C)C)cc1 [Compound K42]
